Data published in patent EP1135374B9, “BENZIMIDAZOLE COMPOUNDS THAT ARE VITRONECTIN RECEPTOR ANTAGONISTS” (SCHERING CORPORATION, priority 1998, dated 2000).
pIC50: −log10 of the molar value.

Columns and labels:
purified αllbβ3 receptor = purified αllbβ3 receptor (Homo sapiens, UniProt P05106+P08514); assay: similar competitive binding assay with 125I-echistatin on αllbβ3 receptor, used for the specificity index; conditions: specificity index IC50 αllbβ3/ IC50 αvβ3; for SPECIFICITY αIIbβ3 / αvβ3: Table 10; for Specificity α11bβ3 / αvβ3: Table 13; for Specificity αIIβ3 / αvβ3: Table 14
Method: To measure the relative affinity of the test compounds for αvβ3 receptors versus affinity for αllbβ3 receptors, similar competitive assays were carried out using purified αllbβ3 receptor and ^125I-echistatin (iodinated using the lactoperoxidase method). The specificity index, which is a measure of the relative binding affinity for αvβ3, versus αllbβ3, may be determined by dividing the IC50 value for αllbβ3 by the IC50 value for αvβ3.

[1] = molecular target: T1, αvβ3 receptor (purified from human placenta) (Homo sapiens, UniProt P05106+P06756); assay: competition radioligand binding assay, 125I-echistatin to αvβ3 receptor; conditions: αvβ3, inhibition of specific 125I-echistatin binding
T1 construct: αvβ3 receptor (purified from human placenta); from tissue; host or cells: human placenta
Method: The following assay procedure, which is a competition radioligand binding assay, was carried out to determine the activity of the foregoing compounds as αvβ3 antagonists. The competitive assay procedure described in Kumar, et. al., "Biochemical Characterization Of The Binding Of Echistatin To Integrin αvβ3 Receptor", Journal Of Pharmacology And Experimental Therapeutics, Vol. 283, No. 2, pp. 843-853 (1997) was employed. Thus, binding of ^125I-echistatin (radiolabeled by the chloramine-T method to a specific activity of 2000 Ci/mmol (Amersham, Chicago, Il.)) to αvβ3 receptor (purified from human placenta), both prepared as described in Kumar, et al., was competed by the compounds prepared in the foregoing examples. Purified αvβ3 receptor was coated onto Microlite-2 plates at a concentration of 50 ng/well. ^125I-echistatin was added to the wells to a final concentration of 0.05 nM in binding buffer (50 µl/well) in the presence of the competing test compound. The competing test compounds were employed at serially diluted concentrations ranging from 1 pM to 100 nM. After a 3 hour incubation at room temperature, the wells were washed, and radioactivity, reflecting binding by ^125 I-echistatin to αvβ3 receptors, was determined with Top Count (Packard). Each data point is an average of values from triplicate wells.
Specific binding of ^125I-echistatin was calculated as the difference between the amount of ^125I-echistatin bound in the absence (total binding) and the amount of ^125I-echistatin bound in the presence of a 200-fold molar excess of unlabeled echistatin (nonspecific binding). The efficacy of the test compounds for inhibiting specific binding of ^125I-echistatin to αvβ3 receptors was determined by plotting a graph of specific binding (y-axis) as a function of test compound concentration (x-axis). The concentration of test compound required to inhibit 50% of the specific binding (IC50) was determined from the plot. The IC50 may be directly converted mathematically to Ki, which is a measure of the receptor binding affinity of the compounds under the defined assay conditions.

CCOC(=O)CCNC(=O)N(Cc1ccc(C(=O)NC[C@H](NC(=O)OCc2ccccc2)C(=O)O)cc1)Cc1nc2ccccc2[nH]1 [Example 5-54]
SPECIFICITY αIIbβ3 / αvβ3 (purified αllbβ3 receptor): 413
pIC50 ([1]; Table 10): 8.70

O=C(N[C@@H](CNC(=O)c1ccc(CN(Cc2nc3ccccc3[nH]2)C(=S)NC2CCCCC2)cc1)C(=O)O)OCc1ccccc1 [Example 5-55]
SPECIFICITY αIIbβ3 / αvβ3 (purified αllbβ3 receptor): 620
pIC50 ([1]; Table 10): 8.60

COCCNC(=S)N(Cc1ccc(C(=O)NC[C@H](NC(=O)OCc2ccccc2)C(=O)O)cc1)Cc1nc2ccccc2[nH]1 [Example 5-56]
SPECIFICITY αIIbβ3 / αvβ3 (purified αllbβ3 receptor): 514
pIC50 ([1]; Table 10): 8.80

O=C(N[C@H](CNC(=O)c1ccc(CNCc2nc3ccccc3[nH]2)cc1)C(=O)O)OCc1ccccc1 [Example 5-57]
Specificity αllbβ3 / αvβ3 (purified αllbβ3 receptor; Table 11): 1.43
pIC50 ([1]; Table 11): 5.89

COCC(=O)N(Cc1ccc(C(=O)NC[C@@H](NC(=O)OCc2ccccc2)C(=O)O)cc1)Cc1nc2ccccc2[nH]1 [Example 5-58]
Specificity αllbβ3 / αvβ3 (purified αllbβ3 receptor; Table 11): 46
pIC50 ([1]; Table 11): 6.93

O=C(N[C@H](CNC(=O)c1ccc(CN(Cc2nc3ccccc3[nH]2)C(=O)CCc2ccccc2)cc1)C(=O)O)OCc1ccccc1 [Example 5-59]
Specificity αllbβ3 / αvβ3 (purified αllbβ3 receptor; Table 11): 65
pIC50 ([1]; Table 11): 6.89

CC(C)(C)OC(=O)N[C@@H](CNC(=O)c1ccc(CNCc2nc3ccccc3[nH]2)cc1)C(=O)O [Example 5-60]
Specificity αllbβ3 / αvβ3 (purified αllbβ3 receptor; Table 12): 90
pIC50 ([1]; Table 12): 7.60

CC(=O)N(Cc1ccc(C(=O)NC[C@H](NC(=O)OC(C)(C)C)C(=O)O)cc1)Cc1nc2ccccc2[nH]1 [Example 5-61]
Specificity αllbβ3 / αvβ3 (purified αllbβ3 receptor; Table 12): 324
pIC50 ([1]; Table 12): 7.77

COCC(=O)N(Cc1ccc(C(=O)NC[C@H](NC(=O)OC(C)(C)C)C(=O)O)cc1)Cc1nc2ccccc2[nH]1 [Example 5-62]
Specificity αllbβ3 / αvβ3 (purified αllbβ3 receptor; Table 12): 419
pIC50 ([1]; Table 12): 7.52

CC(C)(C)OC(=O)N[C@@H](CNC(=O)c1ccc(CN(Cc2nc3ccccc3[nH]2)C(=O)CCc2ccccc2)cc1)C(=O)O [Example 5-63]
Specificity αllbβ3 / αvβ3 (purified αllbβ3 receptor; Table 12): 293
pIC50 ([1]; Table 12): 7.70

CC(C)(C)OC(=O)N[C@@H](CNC(=O)c1ccc(CN(Cc2nc3ccccc3[nH]2)C(=O)CCC2CCCC2)cc1)C(=O)O [Example 5-64]
Specificity αllbβ3 / αvβ3 (purified αllbβ3 receptor; Table 12): 499
pIC50 ([1]; Table 12): 7.80

O=C(O)CC(NC(=O)c1ccc(CNCc2nc3ccccc3[nH]2)cc1)c1ccccc1 (centres unmarked) [Example 5-65]
Specificity α11bβ3 / αvβ3 (purified αllbβ3 receptor): 0.4
pIC50 ([1]; Table 13): 5.03

CC(=O)N(Cc1ccc(C(=O)NC(CC(=O)O)c2ccccc2)cc1)Cc1nc2ccccc2[nH]1 (centres unmarked) [Example 5-66]
Specificity α11bβ3 / αvβ3 (purified αllbβ3 receptor): 0.4
pIC50 ([1]; Table 13): 5.02

COCC(=O)N(Cc1ccc(C(=O)NC(CC(=O)O)c2ccccc2)cc1)Cc1nc2ccccc2[nH]1 (centres unmarked) [Example 5-67]
Specificity α11bβ3 / αvβ3 (purified αllbβ3 receptor): 0.5
pIC50 ([1]; Table 13): 5.13

O=C(O)CC(NC(=O)c1ccc(CN(Cc2nc3ccccc3[nH]2)C(=O)CCc2ccccc2)cc1)c1ccccc1 (centres unmarked) [Example 5-68]
Specificity α11bβ3 / αvβ3 (purified αllbβ3 receptor): 0.4
pIC50 ([1]; Table 13): 5.18

O=C(O)CC(NC(=O)c1ccc(CN(Cc2nc3ccccc3[nH]2)C(=O)CCC2CCCC2)cc1)c1ccccc1 (centres unmarked) [Example 5-69]
Specificity α11bβ3 / αvβ3 (purified αllbβ3 receptor): 0.4
pIC50 ([1]; Table 13): 4.98

O=C(NC(CNC(=O)c1ccc(CNCCc2nc3ccccc3[nH]2)cc1)C(=O)O)OCc1ccccc1 (centres unmarked) [Example 5-70]
Specificity αIIβ3 / αvβ3 (purified αllbβ3 receptor): 0.2
pIC50 ([1]; Table 14): 6.38

CC(=O)N(CCc1nc2ccccc2[nH]1)Cc1ccc(C(=O)NCC(NC(=O)OCc2ccccc2)C(=O)O)cc1 (centres unmarked) [Example 5-71]
Specificity αIIβ3 / αvβ3 (purified αllbβ3 receptor): 0.3
pIC50 ([1]; Table 14): 6.58

COCC(=O)N(CCc1nc2ccccc2[nH]1)Cc1ccc(C(=O)NCC(NC(=O)OCc2ccccc2)C(=O)O)cc1 (centres unmarked) [Example 5-72]
Specificity αIIβ3 / αvβ3 (purified αllbβ3 receptor): 0.5
pIC50 ([1]; Table 14): 6.25
